From US11034725B2, “Compositions and methods for treating cardiovascular disease” (Genentech, Inc., priority 2016, dated 2021)
“Also recorded” adds a separate entry of the source. Bridge positions count the residues as written; N and C are the ends. Square brackets hold non-standard residues; d marks the D form. Ends that are not written are not given here. Peptide text beside a SMILES is read from it. * marks the point of attachment. hArg = N=C(N)NCCCC[C@H](N)C(=O)O; Pentanoyl = CCCCC(=O)*

Assays:
PCSK9Δhelix [1] = biological target: T1, PCSK9Δhelix (Homo sapiens, UniProt Q8NBP7); assay: Surface plasmon resonance biosensor-based affinity analysis (Example 4); type: binding
T1 construct: Human PCSK9 construct M1-Q692 with an engineered TEV site (residue deletion Y166, R167); made in house; host or cells: CHO

PCSK9 [2] = biological target: T2, PCSK9 (Homo sapiens, UniProt Q8NBP7); assay: as above; type: binding; settings: for Kd: Table 7, Target PCSK9, SPR at 20° C.
[3] = biological target: T3, PCSK9-R167A:R215A:R218A (PCSK9-AAA) (Homo sapiens, UniProt Q8NBP7, R167A/R215A/R218A); assay: FXIa cleavage assay of the P′ helix of PCSK9-AAA; type: biochemical; settings: immunoblot with anti-N-terminal peptide antibody
T3 construct: made in house; host or cells: CHO (transient)
Procedure: The PCSK9-AAA mutant (2.6 μM) was incubated with 50 nM FXIa (Haematologic Technologies) in Tris buffer (50 mM Tris, 150 mM NaCl, 4 mM CaCl2, pH 8.0) at room temperature for the indicated time periods. […] After SDS-PAGE of the samples, proteins were transferred to a nitrocellulose membrane using iBlot (Invitrogen). Proteins were then probed with a polyclonal rabbit antibody (1:3000) raised against the PCSK9 N-terminal peptide (^153[…]^168 (SEQ ID NO: 5)), followed with HRP-conjugated donkey anti-rabbit antibody (1:5000, GE Healthcare) using iBind (Invitrogen). PCSK9 signals were detected by ECL (GE Healthcare) and visualized by autoradiography.
Proteins were then probed with a polyclonal rabbit antibody (1:3000) raised against the PCSK9 N-terminal peptide (^153[…]^168 (SEQ ID NO: 5)), followed with HRP-conjugated donkey anti-rabbit antibody (1:5000, GE Healthcare) using iBind (Invitrogen). PCSK9 signals were detected by ECL (GE Healthcare) and visualized by autoradiography.

His-EGF(A)-Fc = His-EGF(A)-Fc TR-FRET counterscreen
PCSK9 [4] = biological target: T2, PCSK9; assay: PCSK9/EGF(A) TR-FRET binding assay; settings: TR-FRET, read-out: PCSK9/EGF(A) IC50
PCSK9Δhelix [5] = biological target: T1, PCSK9Δhelix; assay: PCSK9Δhelix/Ab20 TR-FRET binding assay
FXIa = biological target: T4, FXIa (Homo sapiens, UniProt P03951); assay: LC-MS determination of FXIa-mediated cleavage of groove-binding peptides; type: in vitro ADME
T4 construct: purchased Haematologic Technologies
Procedure: Peptide cleavage was determined by using the calculated molecular weights and by measuring the area under the curves.

PCSK9Δhelix [6] = biological target: T1, PCSK9Δhelix; assay: SPR affinity measurements of peptide binding (Example 8); settings: Table 10, binding to PCSK9Δhelix
Procedure: A Biacore™ T100 or Biacore™ 8K was adjusted to 20° C. The system was primed into assay buffer which consisted of 25 mM HEPES, pH 7.5, 0.15 M NaCl, 0.005% (v/v) Tween® 20, 0.2 mM tris(2-carboxyethyl)phosphine and optionally contained 0.1% (w/v) carboxymethylated dextran (average MW 10 kDa) and 0.2% (w/v) PEG (average MW 3450 Da) in order to reduce potential non-specific binding. Peptides were assayed by capturing fresh PCSK9 or PCSK9Δhelix after each binding regeneration cycle by exploiting a histidine tag and an NTA-sensor chip. The surface was charged with (His)8-tagged PCSK9 (approximately 800 RU captured). […] Compound 19 and Compound 20 were assayed in six serial two-fold dilutions from 100 nM to 3.1 nM. All peptides were analyzed in duplicate by serial injection (50 μL/min for 1 min) of peptide dilution from low to high concentration. The surface was then stripped of target by injecting 0.5 M EDTA, pH 8.0. This sequence was repeated for each peptide binding cycle and blank control cycles.
All SPR data was recorded in duplicate for five, or more serial dilutions, except for the two fusion peptides, which produced extremely low fitting error. Multicycle data (i.e. separate curves for each concentration) and single cycle data (i.e. single curve with serial injection of each concentration) were double referenced and fitted to an interaction model using BIAevaluation software. Peptide binding to PCSK9 produced deviations from a simple 1:1 binding interaction model that required application of a two-state model for determination of Kd while interactions with PCSK9Δhelix conformed well to simple 1:1 binding. Kinetic curvature was poorly defined for rapidly dissociating peptides and in these cases Kd was estimated from a steady-state dose response plot. Kd values were reported with associated standard error, a measure of confidence in that parameter value.

PCSK9 [7] = biological target: T2, PCSK9; assay: Phage competition ELISA; type: binding
Procedure: The sequences of selected clones were fused to the N-terminus of M13 major coat protein (p8) using Kunkel mutagenesis method (Kunkel et al., Methods Enzymol 154, 367-82). The resulting construct was transformed to E. Coli. XL1 blue, single colony was grown in 1 mL 2YT supplemented with 50 μg/mL carbenicillin, 10 μg/mL Tetracycline and M13 KO7 helper phage at 37° C. for 2 h, Kanamycin was added to final concentration of 25 μg/mL, growth was continued at 37° C. for 6 h. The culture was transferred to 30 mL 2YT supplemented with 50 μg/mL carbenicillin and 25 μg/mL kanamycin and grown at 37° C. overnight. The next day, the phage was harvested and purified using the standard protocol (Tonikian et al. Nat Protoc. 2007; 2(6):1368-86). The serially diluted phage solution was applied to the biotinylated PCSK9 and biotinylated PCSK9Δhelix that had been immobilized for 15 min on a 384-well MaxiSorp ImmunoPlate previously coated with 5 μg/mL NeutrAvidin and blocked with Block buffer. The plate was incubated at 4° C. for 1 h, washed 10 times with PT buffer (PBS, 0.05% Tween® 20). The bound phage was detected with anti-M13-HRP and the ELISA signal was read at OD450 nm. The background was ELISA signal that the phage directly bound to NeutrAvidin-coated plate. The data was plotted and the curve fitted with KaleidaGraph. Sub-saturating phage concentration that gave 80% of maximum binding signal was determined by the binding curve.
IC50 measurements were performed by mixing a fixed sub-saturating concentration of peptide-displaying phage with a serial dilution of synthetic peptides in PBT buffer. The mixture was added to plates coated with PCSK9 and PCSK9Δhelix and incubated for 1 h at room temperature. The plates were then washed 10 times with PBT buffer and the bound phage was detected by anti-M13-HRP. The data was plotted, curve fitted and IC50 derived by use of KaleidaGraph. All measurements were repeated 3 times independently.

PCSK9 [8] = biological target: T2, PCSK9; assay: PCSK9 | IC50(uM)
Text: Where the first naming reader finds the target: head: PCSK9 | IC50(uM)

PCSK9Δhelix [9] = biological target: T1, PCSK9Δhelix; assay: PCSK9Δhelix | IC50(uM)
Text: Where the first naming reader finds the target: head: PCSK9Δhelix | IC50(uM)

[10] = Table 7, Target PCSK9Δhelix, SPR at 20° C., read-out: Kd
[11] = TR-FRET counterscreen, Table 8D, * = some inhibition at highest concentrations, not sufficient to fit an IC50
[12] = Table 8D, disulfide-cyclized extension peptides
[13] = Example 4, read-out: Kd for PCSK9Δhelix
[14] = TR-FRET, Example 7, read-out: PCSK9Δhelix/Ab20 IC50
[15] = TR-FRET, Table 8D, disulfide-cyclized extension peptides, read-out: PCSK9Δhelix/Ab20 IC50

CC(=O)N[C@H](C(=O)N[C@H](C(=O)N[C@@H](Cc1ccccc1)C(=O)N[C@H](C(=O)N[C@@H](CO)C(=O)N[C@@H](Cc1c[nH]c2cc(F)ccc12)C(=O)N[C@@H](CCC(=O)O)C(=O)N[C@@H](CCC(=O)O)C(=O)N[C@@H](Cc1ccc(O)cc1)C(=O)N[C@@H](CC(C)C)C(=O)N[C@@H](CC(=O)O)C(=O)N[C@@H](Cc1c[nH]c2ccccc12)C(=O)N[C@H](C(N)=O)C(C)C)[C@@H](C)O)C(C)C)[C@@H](C)O [Compound 3, Ac-TVFTS(W6fl)EEYLDWV-NH2]
Kd (PCSK9Δhelix [1]; [10]): 2.58 µM | improvement of binding to PCSK9 relative to Pep2-8 (PCSK9 [2]; Table 7): about 3 fold | Kd (PCSK9 [2]): 1.4 µM

CC[C@H](C)[C@@H]1NC(=O)[C@H](CCCNC(=N)N)NC(=O)[C@H](CCC(N)=O)NC(=O)[C@H](CC(C)C)NC(=O)[C@H](CC(N)=O)NC(=O)[C@H](Cc2c[nH]c3ccccc23)NC(=O)[C@@H]2CCCN2C(=O)[C@H]([C@@H](C)CC)NC(=O)[C@H](Cc2ccccc2)NC(=O)[C@@H](NC(=O)CNC(=O)[C@@H](N)CO)CSSC[C@@H](C(N)=O)NC(=O)[C@H](CC(C)C)NC(=O)[C@H](CC(C)C)NC(=O)CNC1=O [Compound 26] (H-SGCFIPWNLQRIGLLC-NH2; disulfide 3-16)
effect on FXIa-mediated cleavage of the P′ helix of PCSK9-AAA [3]: accelerated the cleavage reaction; also recorded: able to increase the FXIa-mediated cleavage; also recorded: strongly accelerated the cleavage | Kd (PCSK9Δhelix [1]; [10]): 0.803 µM | Kd (PCSK9 [2]): 29 µM

CC[C@H](C)[C@@H]1NC(=O)[C@H](CCCNC(=N)N)NC(=O)[C@H](CCC(N)=O)NC(=O)[C@H](CC(C)C)NC(=O)[C@H](CC(N)=O)NC(=O)[C@H](Cc2c[nH]c3ccccc23)NC(=O)[C@@H]2CCCN2C(=O)[C@H](CC(C)C)NC(=O)[C@H](CCCNC(=N)N)NC(=O)[C@@H](NC(C)=O)CSSC[C@@H](C(N)=O)NC(=O)[C@@H]2CCCN2C(=O)[C@H](CC(C)C)NC(=O)CNC1=O [Compound 32] (Ac-CRLPWNLQRIGLPC-NH2; disulfide 1-14)
IC50 (His-EGF(A)-Fc; [11]): > 50 µM | IC50 (PCSK9 [4]; [12]): > 50 µM | Kd (PCSK9Δhelix [1]; [13]): 0.21 µM | IC50 (PCSK9Δhelix [5]; [14]): ~1 µM | IC50 (PCSK9Δhelix [5]; [15]): 0.97 µM | Kd (PCSK9 [2]): 1.3 µM

CC[C@H](C)[C@@H]1NC(=O)[C@H](CCCNC(=N)N)NC(=O)[C@H](C)NC(=O)[C@H](CC(C)C)NC(=O)[C@H](CC(N)=O)NC(=O)[C@H](Cc2c[nH]c3ccccc23)NC(=O)[C@@H]2CCCN2C(=O)[C@H](CC(C)C)NC(=O)[C@H](CCCNC(=N)N)NC(=O)[C@@H](NC(C)=O)CSSC[C@@H](C(N)=O)NC(=O)[C@@H]2CCCN2C(=O)[C@H](CC(C)C)NC(=O)CNC1=O [Compound 73] (Ac-CRLPWNLARIGLPC-NH2; disulfide 1-14)
IC50 (His-EGF(A)-Fc; [11]): > 50 µM | IC50 (PCSK9 [4]; [12]): > 50 µM | Kd (PCSK9Δhelix [1]; [13]): 0.167 µM | IC50 (PCSK9Δhelix [5]; [15]): 0.915 µM | Kd (PCSK9 [2]): 11 µM

CCCCC(=O)N[C@@H](Cc1c[nH]c2ccccc12)C(=O)N[C@@H](CC(N)=O)C(=O)N[C@@H](CC(C)C)C(=O)N[C@H](C(=O)N[C@@H](CCCNC(=N)N)C(=O)N[C@H](C(=O)NCC(=O)N[C@@H](CC(C)C)C(=O)N[C@H](C(=O)N[C@@H](CCCNC(=N)N)C(N)=O)[C@@H](C)O)[C@@H](C)CC)C(C)C [Compound 112] (Pentanoyl-WNLVRIGLTR-NH2)
IC50 (His-EGF(A)-Fc; counterscreen, Example 7): > 50 µM | IC50 (PCSK9 [4]; Example 7): > 50 µM | effect on FXIa-mediated cleavage of the P′ helix of PCSK9-AAA [3]: able to increase the FXIa-mediated cleavage | IC50 (PCSK9Δhelix [5]; [14]): 7.5 µM | peptide cleaved by FXIa (FXIa; 1 h, with K9-AAA and 50 nM FXIa): 34% | peptide cleaved by FXIa (FXIa; 6 h, with K9-AAA and 50 nM FXIa): 76% | metabolised at 1 h (FXIa; isolated protease FXIa (50 nM) with K9-AAA, 1 h, with K9-AAA and 50 nM FXIa, read-out: peptide cleaved by FXIa): 34% | metabolised at 6 h (FXIa; isolated protease FXIa (50 nM) with K9-AAA, 6 h, with K9-AAA and 50 nM FXIa, read-out: peptide cleaved by FXIa): 76%

CCCCC(=O)N[C@@H](Cc1c[nH]c2ccccc12)C(=O)N[C@@H](CC(N)=O)C(=O)N[C@@H](CC(C)C)C(=O)N[C@H](C(=O)N[C@@H](CCCCNC(=N)N)C(=O)N[C@H](C(=O)NCC(=O)N[C@@H](CC(C)C)C(=O)N[C@H](C(=O)N[C@@H](CCCNC(=N)N)C(N)=O)[C@@H](C)O)[C@@H](C)CC)C(C)C [Compound 118, n-BuC(O)-WNLV(homoR)IGLTR-NH2] (Pentanoyl-WNLV[hArg]IGLTR-NH2)
IC50 (His-EGF(A)-Fc; counterscreen, Example 7): > 50 µM | IC50 (PCSK9 [4]; Example 7): > 50 µM | effect on FXIa-mediated cleavage of the P′ helix of PCSK9-AAA [3]: higher degree; also recorded: able to increase the FXIa-mediated cleavage; also recorded: stronger effect | increase of inhibition in PCSK9Δhelix/Ab20 assay by homo-arginine replacement (PCSK9Δhelix [5]; versus Compound 112): 5 fold | peptide cleavage by FXIa (FXIa; up to 6 h): remained intact; also recorded: No cleavage

Ac-PWNLVRIGLLR-NH2 [Compound 52]
Kd (PCSK9Δhelix [6]): 2.1 µM | IC50 (His-EGF(A)-Fc; counterscreen, Example 7): > 50 µM | IC50 (PCSK9 [4]; Example 7): > 50 µM | Kd (PCSK9Δhelix [1]; [10]): 2.6 µM | IC50 (PCSK9Δhelix [5]; [14]): 10.2 µM | IC50 (PCSK9Δhelix [5]; Table 10, average ±S.D. of three experiments, read-out: Ab20 IC50): 15.9 ± 1.1 µM | Kd (PCSK9 [2]): 17.9 µM

SGDLMPWNLVRIGLLR-NH2 [Compound K9gvpep7]
competition with binding of phage-displayed Pep2-8 to PCSK9 (PCSK9 [7]): did not compete | IC50 (PCSK9 [8]): 0.635 ± 0.107 µM | IC50 (PCSK9Δhelix [9]): 0.914 ± 0.0283 µM

SGGSMPWNLERIFALH-NH2 [Compound K9gvpep8]
competition with binding of phage-displayed Pep2-8 to PCSK9 (PCSK9 [7]): did not compete | IC50 (PCSK9 [8]): 1.7 ± 0.166 µM | IC50 (PCSK9Δhelix [9]): 2.15 ± 0.215 µM
